Reference: publication PMC5290327, “SC83288 is a clinical development candidate for the treatment of severe malaria” (Nature Communications, 2017)

What was measured:
Experiment in all cases: KINOMEscan
Type in all cases: binding
Details in all cases: read-out: Remaining enzyme activity
[1] = target: T1, BMPR1a (Homo sapiens, UniProt P36894)
T1 construct: purchased Ambit (DiscoverX) KINOMEscan; Cerep
In short: (§1)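 Competition binding: DNA-tagged kinase, immobilized active-site ligand and test compound were combined, and kinase left on beads was quantified by qPCR of the DNA tag. Kinases were T7 phage fusions grown in a BL21-derived E. coli host or were expressed in HEK-293 cells. SC81458 was tested at 10 μM final.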

[2] = target: T2, CDK9 (Homo sapiens, UniProt P50750)
T2 construct: purchased Ambit (DiscoverX) KINOMEscan; Cerep
T2 sequence (P50750 whole entry): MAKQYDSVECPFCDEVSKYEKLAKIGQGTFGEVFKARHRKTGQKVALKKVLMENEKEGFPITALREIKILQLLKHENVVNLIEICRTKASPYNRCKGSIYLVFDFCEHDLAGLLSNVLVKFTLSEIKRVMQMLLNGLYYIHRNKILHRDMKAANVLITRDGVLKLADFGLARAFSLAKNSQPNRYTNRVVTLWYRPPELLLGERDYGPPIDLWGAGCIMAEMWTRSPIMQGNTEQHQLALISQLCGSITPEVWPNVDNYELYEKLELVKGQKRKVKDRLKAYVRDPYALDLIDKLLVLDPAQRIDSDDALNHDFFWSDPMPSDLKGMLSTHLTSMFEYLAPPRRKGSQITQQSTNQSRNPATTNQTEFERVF
In short: as §1

[3] = target: T3, DAPK2 (Homo sapiens, UniProt Q9UIK4)
T3 construct: purchased Ambit (DiscoverX) KINOMEscan; Cerep
In short: as §1

[4] = target: T4, ERBB3 (Homo sapiens, UniProt P21860)
T4 construct: purchased Ambit (DiscoverX) KINOMEscan; Cerep
In short: as §1

[5] = target: T5, GRK4 (Homo sapiens, UniProt P32298)
T5 construct: purchased Ambit (DiscoverX) KINOMEscan; Cerep
In short: as §1

[6] = target: T6, GRK7 (Homo sapiens, UniProt Q8WTQ7)
T6 construct: purchased Ambit (DiscoverX) KINOMEscan; Cerep
In short: as §1

[7] = target: T7, HIPK2 (Homo sapiens, UniProt Q9H2X6)
T7 construct: purchased Ambit (DiscoverX) KINOMEscan; Cerep
In short: as §1

[8] = target: T8, ITK (Homo sapiens, UniProt Q08881)
T8 construct: purchased Ambit (DiscoverX) KINOMEscan; Cerep
In short: as §1

[9] = target: T9, LOK (Homo sapiens, UniProt O94804)
T9 construct: purchased Ambit (DiscoverX) KINOMEscan; Cerep
In short: as §1

[10] = target: T10, LYN (Homo sapiens, UniProt P07948)
T10 construct: purchased Ambit (DiscoverX) KINOMEscan; Cerep
T10 sequence (P07948 whole entry): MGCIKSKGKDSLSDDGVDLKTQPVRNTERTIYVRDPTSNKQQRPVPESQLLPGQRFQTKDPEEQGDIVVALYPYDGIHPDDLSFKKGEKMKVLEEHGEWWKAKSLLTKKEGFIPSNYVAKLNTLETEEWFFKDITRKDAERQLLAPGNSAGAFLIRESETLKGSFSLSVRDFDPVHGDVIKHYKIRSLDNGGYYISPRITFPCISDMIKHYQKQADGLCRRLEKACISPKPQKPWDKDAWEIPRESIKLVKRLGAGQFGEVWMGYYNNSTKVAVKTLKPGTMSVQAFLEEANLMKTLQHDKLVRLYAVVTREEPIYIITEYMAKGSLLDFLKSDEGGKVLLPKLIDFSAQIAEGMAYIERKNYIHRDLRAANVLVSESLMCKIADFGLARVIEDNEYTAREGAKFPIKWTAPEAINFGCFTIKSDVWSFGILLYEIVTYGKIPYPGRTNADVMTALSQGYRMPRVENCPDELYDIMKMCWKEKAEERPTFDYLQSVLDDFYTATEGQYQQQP
In short: as §1

[11] = target: T11, MAP3K2 (Homo sapiens, UniProt Q9Y2U5)
T11 construct: purchased Ambit (DiscoverX) KINOMEscan; Cerep
In short: as §1

[12] = target: T12, MAP4K2 (Homo sapiens, UniProt Q12851)
T12 construct: purchased Ambit (DiscoverX) KINOMEscan; Cerep
In short: as §1

[13] = target: T13, MARK3 (Homo sapiens, UniProt P27448)
T13 construct: purchased Ambit (DiscoverX) KINOMEscan; Cerep
In short: as §1

[14] = target: T14, NEK1 (Homo sapiens, UniProt Q96PY6)
T14 construct: purchased Ambit (DiscoverX) KINOMEscan; Cerep
In short: as §1

[15] = target: T15, NEK5 (Homo sapiens, UniProt Q6P3R8)
T15 construct: purchased Ambit (DiscoverX) KINOMEscan; Cerep
In short: as §1

[16] = target: T16, NIM1 (Homo sapiens, UniProt Q8IY84)
T16 construct: purchased Ambit (DiscoverX) KINOMEscan; Cerep
T16 sequence (Q8IY84 whole entry): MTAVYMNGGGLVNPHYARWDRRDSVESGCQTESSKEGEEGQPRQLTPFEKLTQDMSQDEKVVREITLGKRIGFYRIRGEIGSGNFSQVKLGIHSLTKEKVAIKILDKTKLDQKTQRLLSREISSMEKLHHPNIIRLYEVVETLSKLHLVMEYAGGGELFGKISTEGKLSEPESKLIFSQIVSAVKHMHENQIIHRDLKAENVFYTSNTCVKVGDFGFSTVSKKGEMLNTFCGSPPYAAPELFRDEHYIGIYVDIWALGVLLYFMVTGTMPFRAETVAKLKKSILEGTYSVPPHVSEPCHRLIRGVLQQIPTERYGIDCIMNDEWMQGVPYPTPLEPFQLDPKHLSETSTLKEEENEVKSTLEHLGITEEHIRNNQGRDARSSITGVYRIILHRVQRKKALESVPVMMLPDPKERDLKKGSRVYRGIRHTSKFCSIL
In short: as §1

[17] = target: T17, PAK1 (Homo sapiens, UniProt Q13153)
T17 construct: purchased Ambit (DiscoverX) KINOMEscan; Cerep
In short: as §1

[18] = target: T18, PAK6 (Homo sapiens, UniProt Q9NQU5)
T18 construct: purchased Ambit (DiscoverX) KINOMEscan; Cerep
In short: as §1

[19] = target: T19, PCTk3 (Homo sapiens, UniProt Q07002)
T19 construct: purchased Ambit (DiscoverX) KINOMEscan; Cerep
In short: as §1

[20] = target: T20, PDGFRb (Homo sapiens, UniProt P09619)
T20 construct: purchased Ambit (DiscoverX) KINOMEscan; Cerep
In short: as §1

[21] = target: T21, PDPK1 (Homo sapiens, UniProt O15530)
T21 construct: purchased Ambit (DiscoverX) KINOMEscan; Cerep
T21 sequence (O15530 whole entry): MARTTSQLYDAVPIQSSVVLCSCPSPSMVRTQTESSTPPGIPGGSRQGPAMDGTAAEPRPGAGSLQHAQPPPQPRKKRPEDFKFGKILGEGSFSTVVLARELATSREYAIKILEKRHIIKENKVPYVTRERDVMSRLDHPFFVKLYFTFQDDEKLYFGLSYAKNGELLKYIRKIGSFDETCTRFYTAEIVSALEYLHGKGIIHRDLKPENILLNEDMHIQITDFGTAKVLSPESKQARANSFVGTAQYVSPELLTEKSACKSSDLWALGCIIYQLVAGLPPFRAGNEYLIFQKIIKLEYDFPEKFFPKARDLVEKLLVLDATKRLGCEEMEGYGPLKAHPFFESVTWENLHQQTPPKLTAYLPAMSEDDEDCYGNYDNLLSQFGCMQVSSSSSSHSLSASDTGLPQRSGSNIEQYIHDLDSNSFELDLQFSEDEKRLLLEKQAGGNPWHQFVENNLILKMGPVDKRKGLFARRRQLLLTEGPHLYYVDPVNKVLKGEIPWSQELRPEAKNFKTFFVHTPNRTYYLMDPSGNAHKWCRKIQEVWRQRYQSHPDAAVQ
In short: as §1

[22] = target: T22, PIK3Cb (Homo sapiens, UniProt P42338)
T22 construct: purchased Ambit (DiscoverX) KINOMEscan; Cerep
T22 sequence (P42338 whole entry): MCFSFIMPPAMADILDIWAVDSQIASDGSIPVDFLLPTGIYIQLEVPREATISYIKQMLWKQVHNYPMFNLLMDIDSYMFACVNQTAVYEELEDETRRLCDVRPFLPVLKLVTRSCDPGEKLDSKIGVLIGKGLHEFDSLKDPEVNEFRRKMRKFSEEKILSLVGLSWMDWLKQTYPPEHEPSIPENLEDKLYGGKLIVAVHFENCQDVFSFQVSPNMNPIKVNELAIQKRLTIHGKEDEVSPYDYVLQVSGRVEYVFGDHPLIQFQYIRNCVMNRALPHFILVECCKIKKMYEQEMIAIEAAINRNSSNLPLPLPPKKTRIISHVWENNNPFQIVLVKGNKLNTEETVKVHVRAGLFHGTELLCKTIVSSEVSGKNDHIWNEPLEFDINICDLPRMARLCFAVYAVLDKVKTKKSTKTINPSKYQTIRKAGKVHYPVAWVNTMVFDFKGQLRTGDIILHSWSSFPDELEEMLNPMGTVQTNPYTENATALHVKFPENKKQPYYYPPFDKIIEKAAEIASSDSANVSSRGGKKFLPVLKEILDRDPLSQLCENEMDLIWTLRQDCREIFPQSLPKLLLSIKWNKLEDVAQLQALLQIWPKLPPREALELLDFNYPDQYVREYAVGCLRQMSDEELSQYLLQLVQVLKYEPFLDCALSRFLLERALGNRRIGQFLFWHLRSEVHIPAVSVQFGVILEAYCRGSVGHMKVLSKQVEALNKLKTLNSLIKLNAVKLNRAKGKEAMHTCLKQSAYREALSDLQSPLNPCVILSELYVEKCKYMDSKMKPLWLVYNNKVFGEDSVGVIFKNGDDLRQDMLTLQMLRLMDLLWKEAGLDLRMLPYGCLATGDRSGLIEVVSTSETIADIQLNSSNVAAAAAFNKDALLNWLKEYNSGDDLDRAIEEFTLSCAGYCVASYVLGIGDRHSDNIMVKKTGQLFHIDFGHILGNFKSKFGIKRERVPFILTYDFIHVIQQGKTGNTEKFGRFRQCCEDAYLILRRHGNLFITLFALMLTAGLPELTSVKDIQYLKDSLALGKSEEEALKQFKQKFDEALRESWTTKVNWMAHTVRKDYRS
In short: as §1

[23] = target: T23, PKAC-beta (Homo sapiens, UniProt P22694)
T23 construct: purchased Ambit (DiscoverX) KINOMEscan; Cerep
In short: as §1

[24] = target: T24, PKMYT1 (Homo sapiens, UniProt Q99640)
T24 construct: purchased Ambit (DiscoverX) KINOMEscan; Cerep
In short: as §1

[25] = target: T25, PYK2 (Homo sapiens, UniProt Q14289)
T25 construct: purchased Ambit (DiscoverX) KINOMEscan; Cerep
In short: as §1

[26] = target: T26, QSK (Homo sapiens, UniProt Q9Y2K2)
T26 construct: purchased Ambit (DiscoverX) KINOMEscan; Cerep
T26 sequence (Q9Y2K2 whole entry): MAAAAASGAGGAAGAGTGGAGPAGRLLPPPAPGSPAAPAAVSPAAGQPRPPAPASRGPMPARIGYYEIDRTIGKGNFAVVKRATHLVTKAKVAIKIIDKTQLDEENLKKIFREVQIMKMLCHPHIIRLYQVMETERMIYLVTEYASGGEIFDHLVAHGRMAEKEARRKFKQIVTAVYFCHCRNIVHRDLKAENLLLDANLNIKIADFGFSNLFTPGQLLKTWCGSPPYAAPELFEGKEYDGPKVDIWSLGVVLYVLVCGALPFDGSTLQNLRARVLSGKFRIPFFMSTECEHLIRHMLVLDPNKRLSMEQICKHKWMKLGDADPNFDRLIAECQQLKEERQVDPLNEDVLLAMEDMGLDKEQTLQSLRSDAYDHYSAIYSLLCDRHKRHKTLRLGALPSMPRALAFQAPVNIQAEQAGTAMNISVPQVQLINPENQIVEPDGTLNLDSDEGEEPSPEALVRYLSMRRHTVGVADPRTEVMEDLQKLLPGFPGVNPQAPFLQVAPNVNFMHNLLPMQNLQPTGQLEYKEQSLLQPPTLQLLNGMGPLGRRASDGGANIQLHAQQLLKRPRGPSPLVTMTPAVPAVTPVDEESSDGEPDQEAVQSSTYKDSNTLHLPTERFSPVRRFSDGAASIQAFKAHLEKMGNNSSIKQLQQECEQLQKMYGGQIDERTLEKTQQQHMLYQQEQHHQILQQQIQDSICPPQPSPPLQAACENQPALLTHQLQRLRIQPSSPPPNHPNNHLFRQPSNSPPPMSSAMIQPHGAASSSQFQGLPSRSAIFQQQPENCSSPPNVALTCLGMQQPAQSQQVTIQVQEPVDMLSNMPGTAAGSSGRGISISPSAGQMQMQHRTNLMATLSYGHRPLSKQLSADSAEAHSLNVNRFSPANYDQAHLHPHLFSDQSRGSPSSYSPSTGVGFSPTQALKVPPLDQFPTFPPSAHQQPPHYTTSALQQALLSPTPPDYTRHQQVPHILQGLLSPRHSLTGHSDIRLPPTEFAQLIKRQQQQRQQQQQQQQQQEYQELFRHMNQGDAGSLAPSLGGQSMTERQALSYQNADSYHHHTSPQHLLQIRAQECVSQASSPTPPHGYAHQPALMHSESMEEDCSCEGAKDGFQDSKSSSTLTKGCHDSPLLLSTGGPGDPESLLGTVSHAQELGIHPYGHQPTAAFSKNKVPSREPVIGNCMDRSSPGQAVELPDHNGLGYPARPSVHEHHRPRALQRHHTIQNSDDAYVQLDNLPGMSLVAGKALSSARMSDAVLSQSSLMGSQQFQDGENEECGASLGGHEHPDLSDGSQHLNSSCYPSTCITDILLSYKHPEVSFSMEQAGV
In short: as §1

[27] = target: T27, RRET(V804L) (Homo sapiens, UniProt P07949, V804L)
T27 construct: purchased Ambit (DiscoverX) KINOMEscan; Cerep
In short: as §1

[28] = target: T28, SRC (Homo sapiens, UniProt P12931)
T28 construct: purchased Ambit (DiscoverX) KINOMEscan; Cerep
In short: as §1

[29] = target: T29, STK36 (Homo sapiens, UniProt Q9NRP7)
T29 construct: purchased Ambit (DiscoverX) KINOMEscan; Cerep
In short: as §1

[30] = target: T30, TAO1 (Homo sapiens, UniProt Q9UL54)
T30 construct: purchased Ambit (DiscoverX) KINOMEscan; Cerep
In short: as §1

[31] = target: T31, TAOK1 (Homo sapiens, UniProt Q7L7X3)
T31 construct: purchased Ambit (DiscoverX) KINOMEscan; Cerep
In short: as §1

[32] = target: T32, TNK1 (Homo sapiens, UniProt Q13470)
T32 construct: purchased Ambit (DiscoverX) KINOMEscan; Cerep
In short: as §1

[33] = target: T33, TYK2(JHdomain-speudokinase) (Homo sapiens, UniProt P29597)
T33 construct: TYK2(JHdomain-speudokinase); purchased Ambit (DiscoverX) KINOMEscan; Cerep
In short: as §1

[34] = target: T34, ZAP70 (Homo sapiens, UniProt P43403)
T34 construct: purchased Ambit (DiscoverX) KINOMEscan; Cerep
T34 sequence (P43403 whole entry): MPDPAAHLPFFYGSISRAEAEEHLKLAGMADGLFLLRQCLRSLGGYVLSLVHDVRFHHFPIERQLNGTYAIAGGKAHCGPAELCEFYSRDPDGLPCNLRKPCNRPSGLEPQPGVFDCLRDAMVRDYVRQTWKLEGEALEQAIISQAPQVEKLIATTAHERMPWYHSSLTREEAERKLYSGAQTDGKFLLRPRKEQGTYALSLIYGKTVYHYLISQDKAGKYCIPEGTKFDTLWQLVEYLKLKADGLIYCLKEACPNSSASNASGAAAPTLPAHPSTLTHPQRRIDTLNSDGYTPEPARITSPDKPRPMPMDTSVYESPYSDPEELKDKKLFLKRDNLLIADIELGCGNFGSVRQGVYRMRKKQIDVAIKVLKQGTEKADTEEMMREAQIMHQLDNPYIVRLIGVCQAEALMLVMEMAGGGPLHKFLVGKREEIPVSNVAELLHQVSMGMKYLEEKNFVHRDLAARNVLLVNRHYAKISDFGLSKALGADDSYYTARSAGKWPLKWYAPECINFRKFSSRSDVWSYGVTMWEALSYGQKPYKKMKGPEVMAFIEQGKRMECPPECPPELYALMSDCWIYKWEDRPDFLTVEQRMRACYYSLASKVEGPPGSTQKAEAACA
In short: as §1

CCCCN1CCN(C(=N)c2cccc(NC(=O)Nc3ccc(S(=O)(=O)NCc4ccc(S(N)(=O)=O)cc4)cc3)c2)CC1 [SC81458, 4-(3-(3-((4-butylpiperazin-1-yl)(imino)methyl)phenyl)ureido)-N-(4-sulfamoylbenzyl) benzenesulfonamide]
remaining binding at 10 µM [1]: 100%
remaining binding at 10 µM [2]: 100%
remaining binding at 10 µM [3]: 100%
remaining binding at 10 µM [4]: 81%
remaining binding at 10 µM [5]: 92%
remaining binding at 10 µM [6]: 100%
remaining binding at 10 µM [7]: 100%
remaining binding at 10 µM [8]: 86%
remaining binding at 10 µM [9]: 100%
remaining binding at 10 µM [10]: 97%
remaining binding at 10 µM [11]: 100%
remaining binding at 10 µM [12]: 100%
remaining binding at 10 µM [13]: 99%
remaining binding at 10 µM [14]: 83%
remaining binding at 10 µM [15]: 100%
remaining binding at 10 µM [16]: 100%
remaining binding at 10 µM [17]: 100%
remaining binding at 10 µM [18]: 95%
remaining binding at 10 µM [19]: 98%
remaining binding at 10 µM [20]: 61%
remaining binding at 10 µM [21]: 74%
remaining binding at 10 µM [22]: 70%
remaining binding at 10 µM [23]: 78%
remaining binding at 10 µM [24]: 90%
remaining binding at 10 µM [25]: 98%
remaining binding at 10 µM [26]: 100%
remaining binding at 10 µM [27]: 100%
remaining binding at 10 µM [28]: 81%
remaining binding at 10 µM [29]: 100%
remaining binding at 10 µM [30]: 100%
remaining binding at 10 µM [31]: 100%
remaining binding at 10 µM [32]: 70%
remaining binding at 10 µM [33]: 93%
remaining binding at 10 µM [34]: 89%
